# Earlier results, collected in patent publication US5731007A, “Pharmaceutical composition for skin diseases” (Yungjin Pharmaceutical Co., Ltd., priority 1994, dated 1998).
# Entries after “also recorded” stand apart in the source; their conditions may differ. Where a name gives a salt, the structure may show the parent alone.
# System: gram positive and negative bacteria
# Settings: including strains resistant to antibiotics such as kanamycin
smiles,measurement,value
"CNC[C@@H]1CC[C@@H](N)[C@@H](O[C@H]2[C@H](O)[C@@H](O[C@H]3OC[C@](C)(O)[C@H](NC)[C@H]3O)[C@H](N)C[C@@H]2N)O1 [Micronomicin sulfate, micronomicin sulfate]",antibacterial activity,wide antibacterial spectrum against both gram positive and negative bacteria; also recorded: effective bacteriocidal activity against infections by strains resistant to various antibiotics such as kanamycin
